Results on seven compounds are retold here after article PMC6199744, “Development of Chemical Proteomics for the Folateome and Analysis of the Kinetoplastid Folateome” (ACS Infectious Diseases, 2018).

Holding throughout (type): binding
The target in assay [1] is T1, HeLa cell extract proteins (Homo sapiens, UniProt P31930).
T1 construct: endogenous in cells; host or cells: HeLa cell extract
T1 sequence (P31930 35-480): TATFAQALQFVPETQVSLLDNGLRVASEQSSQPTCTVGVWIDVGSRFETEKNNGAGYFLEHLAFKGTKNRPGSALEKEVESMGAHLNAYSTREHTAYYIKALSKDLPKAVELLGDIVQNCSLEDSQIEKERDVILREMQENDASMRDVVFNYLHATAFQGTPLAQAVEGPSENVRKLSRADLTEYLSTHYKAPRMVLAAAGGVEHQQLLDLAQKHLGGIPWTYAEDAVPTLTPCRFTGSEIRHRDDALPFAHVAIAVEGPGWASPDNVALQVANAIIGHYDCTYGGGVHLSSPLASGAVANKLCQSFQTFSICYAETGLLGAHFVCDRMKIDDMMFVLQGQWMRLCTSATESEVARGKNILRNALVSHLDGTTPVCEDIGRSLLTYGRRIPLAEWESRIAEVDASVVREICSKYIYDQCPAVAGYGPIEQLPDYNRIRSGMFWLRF

In assay [2] the target is T2, HeLa cell extract proteins (Homo sapiens, UniProt P61019).
T2 construct: endogenous in cells; host or cells: HeLa cell extract
T2 sequence (P61019 whole entry): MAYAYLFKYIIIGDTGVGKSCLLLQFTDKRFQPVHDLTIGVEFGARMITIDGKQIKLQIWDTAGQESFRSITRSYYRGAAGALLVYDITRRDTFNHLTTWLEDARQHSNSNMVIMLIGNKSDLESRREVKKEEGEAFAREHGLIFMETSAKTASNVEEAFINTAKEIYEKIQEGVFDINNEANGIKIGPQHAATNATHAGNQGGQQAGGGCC

Assay [3] has as its target T3, HeLa cell extract proteins (Homo sapiens, UniProt O43865).
T3 construct: endogenous in cells; host or cells: HeLa cell extract

Assay [4] addresses T4, HeLa cell extract proteins (Homo sapiens, UniProt Q99623).
T4 construct: endogenous in cells; host or cells: HeLa cell extract

Assay [5] concerns the target T5, HeLa cell extract proteins (Homo sapiens, UniProt Q9BUJ2).
T5 construct: endogenous in cells; host or cells: HeLa cell extract
T5 sequence (Q9BUJ2 1-856): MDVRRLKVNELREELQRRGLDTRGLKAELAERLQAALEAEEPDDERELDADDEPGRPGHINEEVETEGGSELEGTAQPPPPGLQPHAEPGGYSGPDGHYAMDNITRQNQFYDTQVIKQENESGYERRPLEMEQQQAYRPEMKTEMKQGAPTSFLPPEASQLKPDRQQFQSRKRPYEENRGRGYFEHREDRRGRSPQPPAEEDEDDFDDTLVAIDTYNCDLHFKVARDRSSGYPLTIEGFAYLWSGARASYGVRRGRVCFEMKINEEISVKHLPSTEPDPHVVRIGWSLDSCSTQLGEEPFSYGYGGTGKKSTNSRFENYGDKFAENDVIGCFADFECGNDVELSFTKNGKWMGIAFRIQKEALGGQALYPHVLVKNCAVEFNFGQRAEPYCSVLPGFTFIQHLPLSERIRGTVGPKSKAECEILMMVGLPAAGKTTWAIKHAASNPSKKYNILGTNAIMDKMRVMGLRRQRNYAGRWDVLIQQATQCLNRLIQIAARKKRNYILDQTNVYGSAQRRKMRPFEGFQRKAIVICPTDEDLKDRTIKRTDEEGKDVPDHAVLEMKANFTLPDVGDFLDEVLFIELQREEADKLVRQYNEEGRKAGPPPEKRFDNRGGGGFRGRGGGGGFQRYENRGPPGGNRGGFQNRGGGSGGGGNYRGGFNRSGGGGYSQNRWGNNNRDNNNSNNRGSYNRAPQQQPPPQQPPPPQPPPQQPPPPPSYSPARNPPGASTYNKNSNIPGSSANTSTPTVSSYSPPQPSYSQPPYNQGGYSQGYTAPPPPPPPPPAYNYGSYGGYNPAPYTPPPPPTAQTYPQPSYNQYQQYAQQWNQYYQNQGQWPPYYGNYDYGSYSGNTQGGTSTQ

Assay [6] deals with T6, HeLa cell extract proteins (Homo sapiens, UniProt P42704).
T6 construct: endogenous in cells; host or cells: HeLa cell extract

Assay [7] concerns the target T7, HeLa cell extract proteins (Homo sapiens, UniProt Q9NU22).
T7 construct: endogenous in cells; host or cells: HeLa cell extract

Assay [8] has as its target T8, HeLa cell extract proteins (Homo sapiens, UniProt P35232).
T8 construct: endogenous in cells; host or cells: HeLa cell extract
T8 sequence (P35232 1-272): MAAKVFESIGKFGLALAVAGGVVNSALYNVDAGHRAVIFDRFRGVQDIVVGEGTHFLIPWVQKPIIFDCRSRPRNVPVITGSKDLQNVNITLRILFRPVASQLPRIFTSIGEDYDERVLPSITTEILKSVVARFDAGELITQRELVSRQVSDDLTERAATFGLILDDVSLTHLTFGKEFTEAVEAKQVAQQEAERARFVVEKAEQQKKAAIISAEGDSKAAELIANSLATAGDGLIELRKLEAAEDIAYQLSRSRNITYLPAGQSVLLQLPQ

Where [9] appears, read: HeLa, captured protein HNRNPUL1.

Molecules are shown by their SMILES. Like-named read-outs stand apart in the source and are kept apart here.

T3 sequence (O43865 whole entry): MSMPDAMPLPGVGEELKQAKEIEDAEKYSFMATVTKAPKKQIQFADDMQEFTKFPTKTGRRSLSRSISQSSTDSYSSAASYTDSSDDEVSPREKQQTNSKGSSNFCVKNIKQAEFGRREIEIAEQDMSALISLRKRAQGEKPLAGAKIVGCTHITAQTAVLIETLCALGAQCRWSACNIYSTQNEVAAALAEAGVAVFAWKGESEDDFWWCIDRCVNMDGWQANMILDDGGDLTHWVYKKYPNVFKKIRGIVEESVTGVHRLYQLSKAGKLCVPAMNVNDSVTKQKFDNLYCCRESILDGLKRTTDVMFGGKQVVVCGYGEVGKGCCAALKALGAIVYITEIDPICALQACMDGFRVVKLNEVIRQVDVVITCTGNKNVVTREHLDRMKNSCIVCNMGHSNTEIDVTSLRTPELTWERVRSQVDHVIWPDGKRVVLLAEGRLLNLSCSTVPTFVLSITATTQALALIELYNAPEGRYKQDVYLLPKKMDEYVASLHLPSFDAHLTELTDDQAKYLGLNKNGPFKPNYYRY
T4 sequence (Q99623 whole entry): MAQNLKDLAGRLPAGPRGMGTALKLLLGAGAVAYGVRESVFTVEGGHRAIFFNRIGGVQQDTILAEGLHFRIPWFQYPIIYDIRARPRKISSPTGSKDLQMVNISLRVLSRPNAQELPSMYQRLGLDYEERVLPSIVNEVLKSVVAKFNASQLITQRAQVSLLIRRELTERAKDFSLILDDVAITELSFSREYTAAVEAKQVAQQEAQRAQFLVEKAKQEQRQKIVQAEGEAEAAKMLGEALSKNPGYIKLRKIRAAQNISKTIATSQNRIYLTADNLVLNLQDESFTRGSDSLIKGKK

In the case of `CCCCCCOc1cccc(Cc2cnc(N)nc2N)c1` [compound 2], the “fold changes relative to vehicle control” value is reported as 0.92 in assay [1] (HeLa, protein UQCRC1); 1.09 in assay [2] (captured protein RAB2A, HeLa); 1.59 in assay [3] (protein AHCYL1, HeLa); 0.91 in assay [4] (HeLa, protein PHB2); 0.86 in assay [5] (protein HNRNPUL1, HeLa); 1.33 in assay [6] (protein LRPPRC, HeLa). Further, the “fold changes relative to vehicle control” value came out at 0.87 in assay [7] (captured protein MDN1, HeLa) and 0.99 in assay [8] (protein PHB, HeLa).

For `NCCOCCOCC(=O)Nc1nc2ncc(CNc3ccc(C(=O)NC(CCC(=O)O)C(=O)O)cc3)nc2c(=O)[nH]1` (centres unmarked) [compound 6], the “fold changes relative to vehicle control” value in assay [1] (HeLa, captured protein UQCRC1) worked out at 0.95; in assay [2] (HeLa, protein RAB2A), 1.09; in assay [3] (HeLa, captured protein AHCYL1) it was 1.25; in assay [4] (protein PHB2, HeLa), 0.95; in assay [5] (setting [9]), 1.05; in assay [6] (HeLa, protein LRPPRC), 1.22. In addition, the “fold changes relative to vehicle control” value in assay [7] (HeLa, protein MDN1) is given as 1.12; in assay [8] (HeLa, protein PHB), 0.99.

As to `CCCCCCOc1ccc(Cc2cnc(N)nc2N)cc1` [compound 1], the “fold changes relative to vehicle control” value in assay [1] (HeLa, protein UQCRC1) is given as 1.09; in assay [2] (captured protein RAB2A, HeLa) it was 0.64; in assay [3] (protein AHCYL1, HeLa), 1.1; in assay [4] (HeLa, protein PHB2) it was 0.95; in assay [5] (protein HNRNPUL1, HeLa), 0.83; in assay [6] (protein LRPPRC, HeLa), 0.92. The “fold changes relative to vehicle control” value in assay [7] (captured protein MDN1, HeLa) was determined as 0.94; in assay [8] (protein PHB, HeLa), 1.06.

As to `Nc1nc2c(c(=O)[nH]1)N(C=O)C(CNc1ccc(C(=O)N[C@@H](CCC(=O)O)C(=O)O)cc1)CN2` (some centres unmarked) [LEU, leucovorin], the “fold changes relative to vehicle control” value is 0.99 in assay [1] (HeLa, captured protein UQCRC1); 0.85 in assay [2] (HeLa, protein RAB2A); 1.12 in assay [3] (HeLa, captured protein AHCYL1); 0.85 in assay [4] (protein PHB2, HeLa); 0.99 in assay [5] (setting [9]); 0.92 in assay [6] (HeLa, protein LRPPRC). Further, the “fold changes relative to vehicle control” value in assay [7] (HeLa, protein MDN1) was determined as 0.96; in assay [8] (HeLa, protein PHB), 0.95.

As to `NCCCNc1ccc(C(=O)NC(CCC(=O)O)C(=O)O)cc1` (centres unmarked) [compound 7], the “fold changes relative to vehicle control” value is 0.99 in assay [1] (HeLa, captured protein UQCRC1); 0.94 in assay [2] (HeLa, protein RAB2A); 1.03 in assay [3] (HeLa, captured protein AHCYL1); 1 in assay [4] (protein PHB2, HeLa); 1.07 in assay [5] (setting [9]); 1.21 in assay [6] (HeLa, protein LRPPRC). Further, the “fold changes relative to vehicle control” value is recorded as 1 in assay [7] (HeLa, protein MDN1) and 0.96 in assay [8] (HeLa, protein PHB).

With `Nc1nc2[nH]cc(CCc3ccc(C(=O)N[C@@H](CCC(=O)O)C(=O)O)cc3)c2c(=O)[nH]1` [PTX, pemetrexed], the “fold changes relative to vehicle control” value in assay [1] turned out to be 0.88; in assay [2], 0.93; in assay [3], 1.08; in assay [4] it was 0.86; in assay [5] it was 1.04; in assay [6], 1.15. In addition, the results for the “fold changes relative to vehicle control” value in assay [7] and in assay [8] were 0.94 and 0.92, respectively.

Regarding `Nc1nc2cccc(-c3ccccc3)c2n1Cc1ccc(Cl)c(Cl)c1` [compound 3], the “fold changes relative to vehicle control” value turned out to be 0.96 in assay [1] (HeLa, protein UQCRC1); 0.83 in assay [2] (captured protein RAB2A, HeLa); 0.94 in assay [3] (protein AHCYL1, HeLa); 1.04 in assay [4] (HeLa, protein PHB2); 0.89 in assay [5] (protein HNRNPUL1, HeLa); 0.74 in assay [6] (protein LRPPRC, HeLa). Also, the “fold changes relative to vehicle control” value worked out at 1.17 in assay [7] (captured protein MDN1, HeLa) and 0.93 in assay [8] (protein PHB, HeLa).
